Results published in patent US9486541B2, “Detecting and treating dementia” (Mayo Foundation for Medical Education and Research, priority 2006, dated 2016).

Legend:
PGRN polypeptide [1] = experiment: PGRN polypeptide levels in treated N2A mouse neuroblastoma cells; assay type: cell-based; conditions: N2A cells, ibuprofen 1 to 5 μM
Method: Cell cultures were maintained in standard cell culture media supplemented with 5% fetal bovine serum and 100 U/mL penicillin/streptomycin (Life Technologies, Karlsruhe, Germany). Cell cultures consisted of Chinese hamster ovary (CHO) cells; human HeLa cells (HeLa); BE(2)-M17, human neuroblastoma (M17); […] The following NSAIDs were dissolved in the vehicle DMSO: ibuprofen (Biomol, Plymouth Meeting, Pa.), indomethacin (Biomol), diclofenac (Cayman Chemical, Ann Arbor, Mich.), naproxen (Cayman Chemical), and aspirin (ICN Biomedicals, Irvine, Calif.). Cells were cultured in serum-containing media and treated for 24 hours in serum-free media with a specific NSAID. […] For cell toxicity studies, cells were treated with NSAIDS at concentrations up to 100 micromolar. The following PPAR activators were dissolved in DMSO: ciglitazone (Calbiochem, San Diego, Calif.), fenofibrate (Sigma-Aldrich, Saint Louis, Mo.), clofibrate (Calbiochem), and L165041 (Calbiochem). Cells were cultured in serum-containing media and treated for 24 hours in serum-free media with a specific PPAR agonist. […]

PGRN polypeptide [2] = experiment: PGRN polypeptide levels in cell lysates and culture supernatants of treated HeLa cells, Western blotting; assay type: cell-based, human; conditions: 1.25 to 20 micromolar ibuprofen, 24 hours, vs DMSO
Method: Cell cultures were maintained in standard cell culture media supplemented with 5% fetal bovine serum and 100 U/mL penicillin/streptomycin (Life Technologies, Karlsruhe, Germany). Cell cultures consisted of Chinese hamster ovary (CHO) cells; human HeLa cells (HeLa); BE(2)-M17, human neuroblastoma (M17); N2A, mouse neuroblastoma; and human lymphoblasts.
The following NSAIDs were dissolved in the vehicle DMSO: ibuprofen (Biomol, Plymouth Meeting, Pa.), indomethacin (Biomol), diclofenac (Cayman Chemical, Ann Arbor, Mich.), naproxen (Cayman Chemical), and aspirin (ICN Biomedicals, Irvine, Calif.). Cells were cultured in serum-containing media and treated for 24 hours in serum-free media with a specific NSAID. NSAID toxicity was examined using a standard MTT-assay (3-(4,5-Dimethyl-2-thiazolylyl)-2,5-diphenyl-2H-tetrazolium Bromide). For cell toxicity studies, cells were treated with NSAIDS at concentrations up to 100 micromolar.
Antibodies that were used included a monoclonal human progranulin antibody (Zymed, South San Francisco, Calif.) directed against full length progranulin polypeptide, a mouse progranulin antibody (R&D Systems, Minneapolis, Minn.) directed against full length progranulin polypeptide, and an anti-GAPDH antibody (Sigma-Aldrich).
HeLa cell cultures (N=4 for all studies) were treated with various concentrations of NSAIDs, including ibuprofen, naproxen, indomethacin, meclofenamic acid, and acetylsalicylic acid for 24 hours in serum free media. Levels of PGRN polypeptide in culture supernatants and in cell lysates were analyzed using Western blotting.

PGRN polypeptide [3] = experiment: PGRN polypeptide expression in HeLa cells by immunohistochemistry; assay type: cell-based, human; conditions: ibuprofen 2.5 μM for 24 hours, vs untreated
Method: Treated and untreated HeLa cells were analyzed for PGRN polypeptide expression using immunohistochemistry. […] Levels of PGRN polypeptide in cell culture supernatants and cell lysates of HeLa cells treated with various concentrations of ibuprofen were compared to corresponding PGRN polypeptide levels in HeLa cells treated with DMSO (FIG. 26).

PGRN polypeptide [4] = experiment: PGRN polypeptide levels in cell lysates and culture supernatants of treated M17 cells, Western blotting; assay type: cell-based, human; conditions: M17 cells, ibuprofen 1 to 5 μM
Method: Cell cultures were maintained in standard cell culture media supplemented with 5% fetal bovine serum and 100 U/mL penicillin/streptomycin (Life Technologies, Karlsruhe, Germany). Cell cultures consisted of Chinese hamster ovary (CHO) cells; human HeLa cells (HeLa); BE(2)-M17, human neuroblastoma (M17); […] The following PPAR activators were dissolved in DMSO: ciglitazone (Calbiochem, San Diego, Calif.), fenofibrate (Sigma-Aldrich, Saint Louis, Mo.), clofibrate (Calbiochem), and L165041 (Calbiochem). Cells were cultured in serum-containing media and treated for 24 hours in serum-free media with a specific PPAR agonist. Curcumin (Sigma-Aldrich) and resveratrol (Sigma-Aldrich) were dissolved in DMSO. Cells were cultured in serum-containing media and treated for 24 hours in serum-free media with curcumin or resveratrol. Antibodies that were used included a monoclonal human progranulin antibody (Zymed, South San Francisco, Calif.) directed against full length progranulin polypeptide, a mouse progranulin antibody (R&D Systems, Minneapolis, Minn.) directed against full length progranulin polypeptide, and an anti-GAPDH antibody (Sigma-Aldrich). Cell cultures were treated with increasing concentrations of the PPARα activator clofibrate or with DMSO. Levels of PGRN polypeptide in culture supernatants and in cell lysates were analyzed using Western blotting. The levels of intracellular and secreted forms of PGRN polypeptide were compared in clofibrate treated M17 cell cultures and DMSO treated M17 cell cultures (FIG. 20).

GAPDH polypeptide = GAPDH polypeptide expression in treated HeLa cells, Western blot; assay type: cell-based, human; conditions: ibuprofen treatment
PPARδ = molecular target: T1, PPARδ (Homo sapiens, UniProt Q03181); conditions: Leesnitzer et al.; cited from earlier work
T1 sequence (Q03181 1-441): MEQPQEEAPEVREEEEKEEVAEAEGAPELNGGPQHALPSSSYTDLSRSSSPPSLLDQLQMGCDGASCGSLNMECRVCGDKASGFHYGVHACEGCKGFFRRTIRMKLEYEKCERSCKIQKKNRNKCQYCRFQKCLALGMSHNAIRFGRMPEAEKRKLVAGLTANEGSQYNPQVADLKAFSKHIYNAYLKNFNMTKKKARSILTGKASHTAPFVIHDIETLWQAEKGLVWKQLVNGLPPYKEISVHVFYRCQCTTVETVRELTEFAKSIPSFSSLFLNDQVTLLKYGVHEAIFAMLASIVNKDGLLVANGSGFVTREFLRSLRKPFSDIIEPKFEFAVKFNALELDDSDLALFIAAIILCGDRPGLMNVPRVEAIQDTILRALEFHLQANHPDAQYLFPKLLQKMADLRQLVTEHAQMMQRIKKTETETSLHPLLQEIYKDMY

PPARα = molecular target: T2, PPARα (Homo sapiens, UniProt Q07869); conditions: Leesnitzer et al.; cited from earlier work
T2 sequence (Q07869 1-468): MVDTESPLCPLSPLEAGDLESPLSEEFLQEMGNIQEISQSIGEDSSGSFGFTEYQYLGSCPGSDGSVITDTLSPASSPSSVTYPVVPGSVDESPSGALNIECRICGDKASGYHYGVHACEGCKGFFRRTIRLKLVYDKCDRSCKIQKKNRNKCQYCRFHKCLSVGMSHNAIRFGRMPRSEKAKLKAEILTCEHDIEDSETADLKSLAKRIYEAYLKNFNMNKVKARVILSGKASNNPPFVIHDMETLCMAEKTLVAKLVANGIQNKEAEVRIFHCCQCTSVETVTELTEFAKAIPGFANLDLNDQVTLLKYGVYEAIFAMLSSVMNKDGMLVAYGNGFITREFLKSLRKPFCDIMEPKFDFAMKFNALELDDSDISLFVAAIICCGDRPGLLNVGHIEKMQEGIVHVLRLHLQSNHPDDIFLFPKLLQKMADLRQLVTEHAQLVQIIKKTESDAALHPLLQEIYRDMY

PPARγ = molecular target: T3, PPARγ (Homo sapiens, UniProt P37231); conditions: highly selective agonist, commercial vendors; cited from earlier work
T3 sequence (P37231 1-505): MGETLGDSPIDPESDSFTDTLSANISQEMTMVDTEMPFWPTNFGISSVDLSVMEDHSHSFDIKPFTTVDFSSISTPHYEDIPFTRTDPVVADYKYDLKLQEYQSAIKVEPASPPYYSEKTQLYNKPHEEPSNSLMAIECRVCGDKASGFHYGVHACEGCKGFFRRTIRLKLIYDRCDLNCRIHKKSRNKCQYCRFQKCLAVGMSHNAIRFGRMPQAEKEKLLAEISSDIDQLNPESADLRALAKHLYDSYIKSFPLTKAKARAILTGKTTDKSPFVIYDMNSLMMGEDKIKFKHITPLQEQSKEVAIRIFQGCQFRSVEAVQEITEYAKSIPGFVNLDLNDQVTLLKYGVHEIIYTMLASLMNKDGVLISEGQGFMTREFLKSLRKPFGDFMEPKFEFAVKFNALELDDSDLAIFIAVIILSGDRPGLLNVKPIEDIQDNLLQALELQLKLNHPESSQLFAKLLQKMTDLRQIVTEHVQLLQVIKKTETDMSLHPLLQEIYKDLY

PGRN mRNA = conditions: myeloid cells, Ong et al.; cited from earlier work

Compound: CC(C)Cc1ccc(C(C)C(=O)O)cc1 (stereo not drawn) [ibuprofen]
- increase in PGRN polypeptide expression (PGRN polypeptide [1]): up to 600%
- increase in the level of intracellular PGRN polypeptide (PGRN polypeptide [2]): approximately 150%
- PGRN polypeptide expression by immunohistochemistry (PGRN polypeptide [3]): increased PGRN polypeptide expression in the Golgi
- increase in PGRN polypeptide expression (PGRN polypeptide [4]): up to 600%
- effect on GAPDH polypeptide expression (GAPDH polypeptide): No significant effect

Compound: O=C(Nc1ccccc1)c1cc([N+](=O)[O-])ccc1Cl [GW9662, 2-Chloro-5-nitro-N-phenylbenzamide]
- block of PPARδ receptors (PPARδ): low micromolar range
- block of PPARα receptors (PPARα): low nM range

Compound: GW1929
- PPARγ agonist activity range (PPARγ): low nM range

Compound: CC1=C(/C=C/C(C)=C/C=C/C(C)=C/C(=O)O)C(C)(C)CCC1 [all trans-retinoic acid]
- PGRN mRNA level (PGRN mRNA): upregulation of PGRN mRNA
